Reference: PMC9032825, “Docking, Binding Free Energy Calculations and In Vitro Characterization of Pyrazine Linked 2-Aminobenzamides as Novel Class I Histone Deacetylase (HDAC) Inhibitors” (Molecules, 2022)
Like-named read-outs stand apart in the source and are kept apart here.

How the values were obtained:
human HDAC1 [1] = target: T1, human HDAC1 (Homo sapiens, UniProt Q13547); assay: HDAC1 inhibition, fluorogenic peptide substrate Ac-RHKK(Acetyl)-AMC; assay type: biochemical; conditions: test set
T1 sequence (Q13547 whole entry): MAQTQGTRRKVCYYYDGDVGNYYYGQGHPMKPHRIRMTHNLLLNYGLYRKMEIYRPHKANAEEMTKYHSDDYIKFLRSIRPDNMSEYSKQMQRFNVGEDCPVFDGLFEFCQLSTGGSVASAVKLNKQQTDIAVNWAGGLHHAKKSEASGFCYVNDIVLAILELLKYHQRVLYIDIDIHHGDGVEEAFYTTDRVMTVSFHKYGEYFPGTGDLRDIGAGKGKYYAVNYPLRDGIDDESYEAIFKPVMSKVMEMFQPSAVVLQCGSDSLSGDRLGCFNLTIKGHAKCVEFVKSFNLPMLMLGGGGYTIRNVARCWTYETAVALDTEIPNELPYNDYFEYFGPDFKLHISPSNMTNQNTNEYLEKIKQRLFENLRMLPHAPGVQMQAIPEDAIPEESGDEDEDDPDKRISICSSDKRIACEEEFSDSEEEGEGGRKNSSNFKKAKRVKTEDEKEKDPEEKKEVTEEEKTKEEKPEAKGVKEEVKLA
Method: (§1) HDAC1, 2, 3 inhibitory activity for the novel inhibitors was performed as previously reported. To keep the test number small, we applied a two-step screening.
(§2) A fluorogenic peptide derived from p53 (Ac-RHKK(Acetyl)-AMC) was used as substrate. The measurements were performed in an assay buffer (50 mM Hepes, 150 mM NaCl, 5 mM MgCl2, 1 mM TCEP and 0.2 mg/mL BSA, pH 7.4 adjusted with NaOH) at 37 °C. Inhibitors at different concentrations were incubated with 10 nM HDAC1, 3 nM HDAC2 or 3 nM HDAC3 (final concentration) for at least 5 min. The reaction was started with the addition of the fluorogenic substrate (20 µM final concentration) and incubated for 30 min for HDAC2 and HDAC3 and 90 min for HDAC1. The reaction was stopped with a solution of 1 mg/mL trypsin in 1 mM HCl and incubated for 1 h at 37 °C. The fluorescence intensity was recorded with an Envision 2104 Multilabel Plate Reader (PerkinElmer, Waltham, MA) with an excitation wavelength of 380 ± 8 nm and an emission wavelength of 430 ± 8 nm. The received fluorescence intensities were normalized with uninhibited reaction as 100% and the reaction without enzyme as 0%. A nonlinear regression analysis was done to determine the IC50 value.

human HDAC3 [2] = target: T2, human HDAC3 (Homo sapiens, UniProt O15379); assay: HDAC3 inhibition, fluorogenic peptide substrate Ac-RHKK(Acetyl)-AMC; assay type: biochemical; conditions: test set
T2 sequence (O15379 whole entry): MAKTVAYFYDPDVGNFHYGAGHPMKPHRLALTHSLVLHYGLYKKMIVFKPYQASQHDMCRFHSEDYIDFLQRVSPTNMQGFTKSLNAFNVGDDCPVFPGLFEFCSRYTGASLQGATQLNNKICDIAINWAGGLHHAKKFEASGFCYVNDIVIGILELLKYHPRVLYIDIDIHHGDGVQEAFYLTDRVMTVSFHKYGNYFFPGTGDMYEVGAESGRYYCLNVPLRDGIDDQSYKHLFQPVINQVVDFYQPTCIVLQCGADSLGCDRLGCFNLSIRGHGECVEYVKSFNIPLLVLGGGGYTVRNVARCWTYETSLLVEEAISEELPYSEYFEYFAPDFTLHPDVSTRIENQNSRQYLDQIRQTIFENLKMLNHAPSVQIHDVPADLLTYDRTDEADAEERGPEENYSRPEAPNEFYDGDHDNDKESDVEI
T2 sequence (O75376 395-489 partner limits assumed): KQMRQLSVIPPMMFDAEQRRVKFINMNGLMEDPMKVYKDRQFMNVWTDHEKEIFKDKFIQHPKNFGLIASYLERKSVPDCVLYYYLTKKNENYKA
Method: as §1, §2

human HDAC2 [3] = target: T3, human HDAC2 (Homo sapiens, UniProt Q92769); assay: HDAC2 inhibition, fluorogenic peptide substrate Ac-RHKK(Acetyl)-AMC; assay type: biochemical; conditions: test set
T3 sequence (Q92769 whole entry): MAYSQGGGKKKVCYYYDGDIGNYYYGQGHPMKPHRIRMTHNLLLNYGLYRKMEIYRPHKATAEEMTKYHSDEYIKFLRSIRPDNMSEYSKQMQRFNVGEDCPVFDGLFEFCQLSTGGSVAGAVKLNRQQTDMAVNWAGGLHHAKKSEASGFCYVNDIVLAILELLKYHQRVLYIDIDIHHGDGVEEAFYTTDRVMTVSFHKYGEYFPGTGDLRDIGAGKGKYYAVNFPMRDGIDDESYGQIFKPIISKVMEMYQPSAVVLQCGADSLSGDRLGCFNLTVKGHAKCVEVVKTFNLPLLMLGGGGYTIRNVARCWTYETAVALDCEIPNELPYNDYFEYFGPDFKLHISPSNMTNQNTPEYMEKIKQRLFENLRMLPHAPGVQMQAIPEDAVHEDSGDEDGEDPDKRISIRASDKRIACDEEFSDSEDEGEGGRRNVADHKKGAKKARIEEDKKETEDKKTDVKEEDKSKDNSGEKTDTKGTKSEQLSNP
Method: as §1, §2

human HDAC2 [4] = target: T3, human HDAC2; conditions: training set, from in vitro IC50; cited from earlier work
human HDAC1 [5] = target: T1, human HDAC1; conditions: training set, from in vitro IC50; cited from earlier work
human HDAC3 [6] = target: T2, human HDAC3; conditions: training set, from in vitro IC50; cited from earlier work

Structure (SMILES)	HDAC2-pIC50 (human HDAC2 [4])	HDAC1-pIC50 (human HDAC1 [5])	HDAC3-pIC50 (human HDAC3 [6])	other results
Nc1cc(F)ccc1NC(=O)c1ccc(C(=O)NCc2ccccc2)cc1 [31a]	–	–	–	inhibition at 1 µM (human HDAC1 [1]): 4%; inhibition at 10 µM (human HDAC1 [1]): 31%; inhibition at 1 µM (human HDAC3 [2]; @1 µM): 21%; inhibition at 10 µM (human HDAC3 [2]; @10 µM): 65%; inhibition at 1 µM (human HDAC2 [3]): 10%; inhibition at 10 µM (human HDAC2 [3]): 37%
CN1CCN(c2cnc(C(=O)Nc3cc(-c4ccsc4)ccc3N)cn2)CC1 [29a]	6.74	6.96	5.36	–
Cn1cc(CCN2CCN(c3cnc(C(=O)Nc4cc(-c5cccs5)ccc4N)cn3)CC2)c2ccccc21 [21a]	5.61	6.59	–	–
CC(=O)N1CCN(c2cnc(C(=O)Nc3ccccc3N)cn2)CC1 [30d]	–	–	–	Experimental HDAC1 pIC50 (human HDAC1 [1]): 5.72; IC50 (human HDAC1 [1]; read-out: HDAC1 IC50): 1900 ± 100 nM; HDAC3 % inhibition (human HDAC3 [2]; @1 µM): 15%; HDAC3 % inhibition (human HDAC3 [2]; @10 µM): 72%; Experimental HDAC2 pIC50 (human HDAC2 [3]): 4.62; IC50 (human HDAC2 [3]): 24000 ± 2000 nM
Nc1cc(F)ccc1NC(=O)c1ccc(C(=O)NCc2cccnc2)cc1 [31c]	–	–	–	inhibition at 1 µM (human HDAC1 [1]): 6%; inhibition at 10 µM (human HDAC1 [1]): 36%; inhibition at 1 µM (human HDAC3 [2]; @1 µM): 25%; inhibition at 10 µM (human HDAC3 [2]; @10 µM): 66%; inhibition at 1 µM (human HDAC2 [3]): 14%; inhibition at 10 µM (human HDAC2 [3]): 51%
Nc1ccc(-c2ccccc2F)cc1NC(=O)c1cnc(N2CCN(CCc3c[nH]c4ccccc34)CC2)cn1 [21c]	6.12	6.12	4.82	–
Nc1cc(Cl)ccc1NC(=O)c1cnc(N2CCNCC2)cn1 [25a]	–	–	5.06	–
CN1CCN(c2cnc(C(=O)Nc3cc(-c4ccccc4F)ccc3N)cn2)CC1 [29d]	6.59	6.74	4.92	–
Cn1cc(CN2CCN(c3cnc(C(=O)Nc4ccccc4N)cn3)CC2)c2ccccc21 [19k]	6.25	6.85	6.23	–
Cn1cc(CCN2CCN(c3cnc(C(=O)Nc4ccc(F)cc4N)cn3)CC2)c2ccccc21 [19m]	5.83	6.40	6.40	–
CC(=O)N1CCN(c2cnc(C(=O)Nc3cc(-c4cccs4)ccc3N)cn2)CC1 [30c]	–	–	–	Experimental HDAC1 pIC50 (human HDAC1 [1]): 7.72; IC50 (human HDAC1 [1]; read-out: HDAC1 IC50): 19 ± 1 nM; HDAC3 % inhibition (human HDAC3 [2]; @1 µM): 4%; HDAC3 % inhibition (human HDAC3 [2]; @10 µM): 30%; Experimental HDAC2 pIC50 (human HDAC2 [3]): 5.96; IC50 (human HDAC2 [3]): 1100 ± 100 nM
Nc1ccc(-c2ccc(F)cc2)cc1NC(=O)c1cnc(N2CCN(CCc3c[nH]c4ccccc34)CC2)cn1 [21b]	6.11	6.15	–	–
Nc1ccccc1NC(=O)c1cnc(N2CCN(CCc3c[nH]c4ccccc34)CC2)cn1 [19g]	6.02	6.51	6.31	–
Nc1ccc(-c2cccs2)cc1NC(=O)c1cnc(N2CCNCC2)cn1 [29b]	6.59	7.15	5.21	–
CN1CCN(c2cnc(C(=O)Nc3cc(-c4cccs4)ccc3N)cn2)CC1 [30b]	–	–	–	Experimental HDAC1 pIC50 (human HDAC1 [1]): 7.39; IC50 (human HDAC1 [1]; read-out: HDAC1 IC50): 40 ± 6 nM; HDAC3 % inhibition (human HDAC3 [2]; @1 µM): 6%; HDAC3 % inhibition (human HDAC3 [2]; @10 µM): 35%; Experimental HDAC2 pIC50 (human HDAC2 [3]): 6.10; IC50 (human HDAC2 [3]): 790 ± 20 nM
COc1ccc(NC(=O)c2cnc(N3CCNCC3)cn2)c(N)c1 [27c]	4.85	4.7	4.85	–
Nc1ccccc1NC(=O)c1cnc(N2CCN(CCc3ccccc3)CC2)cn1 [19a]	6.10	6.29	5.95	–
Nc1cc(F)c(F)cc1NC(=O)c1cnc(N2CCN(CCc3c[nH]c4ccccc34)CC2)cn1 [19h]	6.13	6.09	6.24	–
Nc1cc(Cl)ccc1NC(=O)c1cnc(N2CCN(CCc3c[nH]c4ccccc34)CC2)cn1 [19i]	5.57	5.52	5.72	–
Cn1cc(CN2CCN(c3cnc(C(=O)Nc4cc(F)ccc4N)cn3)CC2)c2ccccc21 [23b]	6.30	6.57	6.30	–
Cn1cc(CCN2CCN(c3cnc(C(=O)Nc4cc(F)ccc4N)cn3)CC2)c2ccccc21 [23c]	5.86	6.48	6.23	–
Nc1cc(F)ccc1NC(=O)c1ccc(C(=O)NCc2ccncc2)cc1 [31b]	–	–	–	inhibition at 1 µM (human HDAC1 [1]): 0%; inhibition at 10 µM (human HDAC1 [1]): 27%; inhibition at 1 µM (human HDAC3 [2]; @1 µM): 19%; inhibition at 10 µM (human HDAC3 [2]; @10 µM): 59%; inhibition at 1 µM (human HDAC2 [3]): 13%; inhibition at 10 µM (human HDAC2 [3]): 30%
CN1CCN(c2ncc(C(=O)Nc3cc(-c4cccs4)ccc3N)cn2)CC1 [30a]	–	–	–	IC50 (human HDAC1 [1]; read-out: Experimental HDAC1 pIC50 (converted)): 324 nM; inhibition at 1 µM (human HDAC3 [2]; @1 µM): 8%; inhibition at 10 µM (human HDAC3 [2]; @10 µM): 38%; IC50 (human HDAC2 [3]): 610 ± 20 nM
Nc1ccc(-c2ccc(F)cc2)cc1NC(=O)c1cnc(N2CCNCC2)cn1 [29c]	6.47	6.80	5.17	–
Nc1cc(F)c(F)cc1NC(=O)c1cnc(N2CCNCC2)cn1 [25b]	5.38	5.37	5.80	–
Nc1cc(F)ccc1NC(=O)c1cnc(N2CCNCC2)cn1 [23a]	5.66	5.48	6.40	–
Nc1ccccc1NC(=O)c1cnc(N2CCN(Cc3ccccn3)CC2)cn1 [19d]	5.84	6.28	5.97	–
Cn1cc(CN2CCN(c3ncc(C(=O)Nc4ccccc4N)cn3)CC2)c2ccccc21 [19j]	6.03	6.35	5.76	–
Nc1ccccc1NC(=O)c1cnc(N2CCN(Cc3csc4ccccc34)CC2)cn1 [19e]	6.15	6.68	6.08	–
Cn1cc(CN2CCN(c3cnc(C(=O)Nc4cc(F)c(F)cc4N)cn3)CC2)c2ccccc21 [19l]	6.25	6.54	6.09	–
